Reference: ChEMBL document CHEMBL3085709, “Modulators of the Sphingosine 1-phosphate receptor 1” (Bioorg Med Chem Lett, 2013)
pEC50, pIC50, pKi: −log10 of the molar value. Each block holds one compound with its values, some of them ahead of it.

How the values were obtained:
[1] = molecular target: T1, Sphingosine 1-phosphate receptor 5 (Homo sapiens, UniProt Q9H228); experiment: Agonist activity at human S1P5 receptor expressed in CHO cells by [35S]GTPgammaS binding assay; type: functional, cell-based
[2] = Half life in human; type: ADME, organism-based; details: in vivo
[3] = molecular target: T2, Sphingosine 1-phosphate receptor 4 (Homo sapiens, UniProt O95977); experiment: Agonist activity at human S1P4 receptor expressed in CHO cells by [35S]GTPgammaS binding assay; type: functional, cell-based
T2 sequence (O95977 whole entry): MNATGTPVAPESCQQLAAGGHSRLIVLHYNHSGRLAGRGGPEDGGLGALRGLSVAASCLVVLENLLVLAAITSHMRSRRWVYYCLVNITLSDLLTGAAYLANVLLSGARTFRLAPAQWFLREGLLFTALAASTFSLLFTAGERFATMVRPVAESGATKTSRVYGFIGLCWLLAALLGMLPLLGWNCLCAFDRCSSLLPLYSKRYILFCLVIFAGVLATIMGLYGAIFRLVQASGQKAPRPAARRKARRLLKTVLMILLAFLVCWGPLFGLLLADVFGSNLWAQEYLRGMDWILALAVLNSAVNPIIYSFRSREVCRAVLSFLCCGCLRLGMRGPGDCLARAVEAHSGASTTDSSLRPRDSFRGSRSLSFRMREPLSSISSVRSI

Mus musculus = experiment: Immunomodulatory activity in po dosed mouse assessed as decrease in peripheral blood lymphocyte count after 3 hrs; type: functional
[4] = Half life of the compound; type: physicochemical
[5] = molecular target: Sphingosine 1-phosphate receptor 1 (Homo sapiens, UniProt P21453); experiment: Antagonist activity at human S1P1 receptor expressed in HEK293 cells assessed as inhibition of S1P-induced decrease in cAMP formation by [35S]GTPgammaS binding assay; type: functional, cell-based
[6] = molecular target: T1, Sphingosine 1-phosphate receptor 5; experiment: Inhibition of S1P5 receptor (unknown origin)
[7] = molecular target: T3, Sphingosine 1-phosphate receptor 3 (Homo sapiens, UniProt Q99500); experiment: Inhibition of S1P3 receptor (unknown origin)
Rattus norvegicus [8] = experiment: Immunomodulatory activity in rat assessed as decrease in peripheral blood lymphocyte count at 50 mg/kg, po after 1 to 8 hrs; type: functional; design: scale not given: the % may be the effect or the level left
[9] = molecular target: T2, Sphingosine 1-phosphate receptor 4; experiment: Inhibition of S1P4 receptor (unknown origin)
[10] = molecular target: T2, Sphingosine 1-phosphate receptor 4; experiment: Antagonist activity at human S1P4 receptor expressed in CHO cells assessed as inhibition of agonist-induced calcium mobilization preincubated for 20 mins by Fluo-4/FLIPR method; type: functional, cell-based
[11] = molecular target: T1, Sphingosine 1-phosphate receptor 5; experiment: Antagonist activity at human S1P5 receptor expressed in CHO cells after 120 mins by [35S]GTPgammaS binding assay; type: functional, cell-based
[12] = molecular target: T3, Sphingosine 1-phosphate receptor 3; experiment: Antagonist activity at human S1P3 receptor expressed in CHO cells assessed as inhibition of agonist-induced calcium mobilization preincubated for 20 mins by Fluo-4/FLIPR method; type: functional, cell-based
Rattus norvegicus [13] = experiment: Immunomodulatory activity in rat assessed as decrease in peripheral blood lymphocyte count at 30 mg/kg, po after 48 hrs; type: functional; design: scale not given: the % may be the effect or the level left
[14] = molecular target: Sphingosine 1-phosphate receptor 2 (Homo sapiens, UniProt O95136); experiment: Antagonist activity at human S1P2 receptor expressed in CHO cells assessed as inhibition of agonist-induced calcium mobilization preincubated for 20 mins by Fluo-4/FLIPR method; type: functional, cell-based
[15] = molecular target: T2, Sphingosine 1-phosphate receptor 4; experiment: Agonist activity at S1P4 receptor (unknown origin)
Rattus norvegicus [16] = experiment: Immunomodulatory activity in rat assessed as decrease in peripheral blood lymphocyte count at 30 mg/kg, po after 14 to 24 hrs; type: functional; design: scale not given: the % may be the effect or the level left
Rattus norvegicus [17] = experiment: Immunomodulatory activity in rat assessed as decrease in peripheral blood lymphocyte count at 100 mg/kg, po after 12 hrs; type: functional; design: scale not given: the % may be the effect or the level left
Homo sapiens [18] = experiment: Immunomodulatory activity in multiple sclerosis patient assessed as decrease in peripheral blood lymphocyte count at 5 mg/kg, po; type: functional; design: scale not given: the % may be the effect or the level left
Homo sapiens [19] = experiment: Immunomodulatory activity in multiple sclerosis patient assessed as decrease in peripheral blood lymphocyte count at 1.25 mg/kg, po; type: functional; design: scale not given: the % may be the effect or the level left
[20] = molecular target: T1, Sphingosine 1-phosphate receptor 5; experiment: Agonist activity at S1P5 receptor (unknown origin)
[21] = molecular target: T3, Sphingosine 1-phosphate receptor 3; experiment: Agonist activity at S1P3 receptor (unknown origin)

T3 sequence (Q99500 whole entry): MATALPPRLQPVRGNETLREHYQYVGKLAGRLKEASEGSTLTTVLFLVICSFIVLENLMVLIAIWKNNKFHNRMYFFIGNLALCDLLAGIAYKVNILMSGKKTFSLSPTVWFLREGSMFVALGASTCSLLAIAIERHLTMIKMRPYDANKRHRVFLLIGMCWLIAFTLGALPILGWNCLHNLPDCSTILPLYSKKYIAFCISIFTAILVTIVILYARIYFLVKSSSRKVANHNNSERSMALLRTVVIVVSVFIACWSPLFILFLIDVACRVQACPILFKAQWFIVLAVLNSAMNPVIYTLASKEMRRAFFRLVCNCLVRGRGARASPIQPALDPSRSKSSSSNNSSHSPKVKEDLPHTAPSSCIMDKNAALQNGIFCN
T1 sequence (Q9H228 whole entry): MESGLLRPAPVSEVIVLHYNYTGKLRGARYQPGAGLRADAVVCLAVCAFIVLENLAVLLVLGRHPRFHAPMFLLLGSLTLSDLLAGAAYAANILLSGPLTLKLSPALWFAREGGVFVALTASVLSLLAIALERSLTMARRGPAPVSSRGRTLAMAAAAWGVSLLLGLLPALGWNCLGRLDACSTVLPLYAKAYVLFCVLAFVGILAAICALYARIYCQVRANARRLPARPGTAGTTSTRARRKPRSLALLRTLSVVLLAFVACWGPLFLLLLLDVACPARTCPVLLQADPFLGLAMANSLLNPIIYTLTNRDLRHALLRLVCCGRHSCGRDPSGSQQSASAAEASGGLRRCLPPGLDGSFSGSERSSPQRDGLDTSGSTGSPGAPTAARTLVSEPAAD
Sphingosine 1-phosphate receptor 1, sequence (P21453 whole entry): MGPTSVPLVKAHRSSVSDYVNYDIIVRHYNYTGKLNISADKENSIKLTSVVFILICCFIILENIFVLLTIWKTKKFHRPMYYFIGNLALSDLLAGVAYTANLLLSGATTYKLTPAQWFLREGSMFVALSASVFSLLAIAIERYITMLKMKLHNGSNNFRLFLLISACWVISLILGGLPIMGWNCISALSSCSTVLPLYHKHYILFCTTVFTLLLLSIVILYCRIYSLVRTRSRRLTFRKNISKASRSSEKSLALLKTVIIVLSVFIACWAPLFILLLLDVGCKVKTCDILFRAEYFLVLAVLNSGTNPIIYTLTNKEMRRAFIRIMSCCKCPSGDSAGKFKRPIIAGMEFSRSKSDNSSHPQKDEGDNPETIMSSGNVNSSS
Sphingosine 1-phosphate receptor 2, sequence (O95136 whole entry): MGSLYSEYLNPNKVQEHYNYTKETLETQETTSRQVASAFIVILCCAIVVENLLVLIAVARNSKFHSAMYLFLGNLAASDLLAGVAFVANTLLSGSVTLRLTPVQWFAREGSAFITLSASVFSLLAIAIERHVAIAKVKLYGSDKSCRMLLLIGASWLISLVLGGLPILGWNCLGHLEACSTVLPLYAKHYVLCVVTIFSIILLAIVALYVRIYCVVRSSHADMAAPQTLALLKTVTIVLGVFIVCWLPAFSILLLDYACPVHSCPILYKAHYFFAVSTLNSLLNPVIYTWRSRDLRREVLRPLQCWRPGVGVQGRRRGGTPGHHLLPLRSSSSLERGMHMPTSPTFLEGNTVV

SMILES: CCc1cc(/C(C)=N/OCc2ccc(C3CCCCC3)c(C(F)(F)F)c2)ccc1CN1CC(C(=O)O)C1 [SIPONIMOD]
pEC50 [1]: 9.01 | half-life [2]: 30 h | pEC50 [3]: 6.12

SMILES: O=C(O)C1CN(Cc2ccc(-c3noc(-c4cc(-c5ccccc5)c(C(F)(F)F)s4)n3)cc2)C1
ED50 (Mus musculus): 0.07 mg/kg

SMILES: Cc1ccc(CCCC(=O)c2ccc(CC[C@@](C)(N)CO)n2C)cc1
half-life [4]: 168 h

SMILES: Cc1cc(S(=O)(=O)Nc2cccc(-c3cc(C)c(C(=O)N[C@@H](C)C(=O)O)c(C)c3)c2)c(C)cc1Cl
Activity (Rattus norvegicus [17]): 75%

SMILES: CCCCCCCCc1ccc(CCC(N)(CO)CO)cc1 [FINGOLIMOD]
Activity (Homo sapiens [18]): 20% | half-life [2]: 216 h | Activity (Homo sapiens [19]): 20% | pEC50 [15]: 9.52 | pEC50 [20]: 9.52 | pEC50 [21]: 8.52

Further lines, with some results ahead:

pIC50 [5]: 6.42 | pKi [5]: 6.60 | pKi [6]: < 5.00 | pKi [7]: 5.31 | pKi [9]: < 5.00
SMILES: CCn1c(OC)nnc1[C@@H](C)NS(=O)(=O)c1ccc(F)c(Cl)c1
Activity (Rattus norvegicus [8]): >70%

half-life [4]: 30 h
SMILES: CCC/N=C1\S/C(=C\c2ccc(OC[C@H](O)CO)c(Cl)c2)C(=O)N1c1ccccc1C [PONESIMOD]

pIC50 [10]: < 5.00 | pIC50 [11]: < 5.00 | pIC50 [12]: < 5.00 | pIC50 [14]: < 5.00 | pEC50 [15]: 6.61
SMILES: Cc1cc([C@@H](C)Nc2cccc(-c3cc(C)c(C(=O)N[C@@H](C)C(=O)O)c(C)c3)c2)ccc1Cl
Activity (Rattus norvegicus [13]): 60% | Activity (Rattus norvegicus [16]): 75%
